Values quoted from earlier work, collected in patent publication US20050186294A1 (priority 1999, published 2005).
Where two headings read alike, the source gives them in different places.

Experiments:
[1] = larger molecular weight molecules such as Testosterone
penile erection = conditions: oral, men
5 Phosphodiesterase = 5 Phosphodiesterase (Homo sapiens, UniProt O76074); conditions: in vitro, similar Molar concentrations
[2] = after oral arginine supplementation (6 g)

In the case of `N=C(N)NCCC[C@H](N)C(=O)O` [L-arginine], the “L-arginine level in the blood” value (after infusion of 6 g) is given as 822 nM/ml, the “L-arginine level in the blood” value (after infusion of 30 g) is given as 6223 nmol/mL and the blood concentration [2] is given as 310 µM. For the same compound, the “detectable cGMP excretion rates in urine” value (cGMP; after infusion of 30 g and 6 g) was “rise in detectable cGMP excretion rates in urine” and the “increases in detectable cGMP” value (cGMP; [2]) was “not statistically significant”.
In the case of `CC1CCC(C(C)C)C(O)C1` (stereo not drawn) [Menthol], the “increase of membrane permeability” value [1] is given as 2-4 times.
For `CCCc1nn(C)c2c(=O)[nH]c(-c3cc(S(=O)(=O)N4CCN(C)CC4)ccc3OCC)nc12` [sildenafil], the “effectiveness to create a penile erection” value (penile erection; after first use) is listed as 54%, the “effectiveness to create a penile erection” value (penile erection; by the eighth use) is listed as 86% and the “inhibition of 5 Phosphodiesterase activity” value (5 Phosphodiesterase) is listed as 85%.
